Measurements: patent publication US20130317027A1, “COMPOUNDS AND THERAPEUTIC USES THEREOF” (Myrexis, Inc, priority 2010, published 2013)
Read-outs that look alike come from different tables or passages of the source.

System: cancer cell lines
Assay: Cytotoxicity in a wide variety of cancer cell types (TC50, CellTiter-Glo, 72 or 96 hours)
Conditions: read-out: TC50
Procedure: Exponentially growing cells were plated in fresh growth media in a 96-well black, flat, clear-bottomed polystyrene microtiter plate (Packard View Plate 6005182). Twenty-four hours later, compounds were added from serial dilutions prepared in DMSO from 50 mM DMSO stock solutions. Each concentration of inhibitor was tested in duplicate at a final DMSO concentration of 0.4%. After 72 or 96 hours incubation, cell viability was quantified by measuring intracellular ATP levels using CellTiter-Glo (Promega). Luminescence data was collected on a TopCount NXT plate reader (PerkinElmer). Experimental values were normalized to solvent controls and plotted versus compound concentration to determine the concentration required for a 50% reduction in cell viability.

With `O=C(NCc1cccnc1)Nc1ccc(COc2ccccc2-c2ccccc2)cc1` [Exemplary Compound A] the CC50 (A172 cells, glioma, 3 DAY) was 1.1 nM, the CC50 (COLO205 cells, colon, 3 DAY) was 0.5 nM and the CC50 (COLO205 cells, colon, 7 DAY) was 0.3 nM. For the same compound, the CC50 (DB cells, lymphoma, 3 DAY) was 3.5 nM, the CC50 (DMS-114 cells, SCLC, 3 DAY) was 0.16 nM and the CC50 (DU145 cells, prostate, 3 DAY) was 3.9 nM. It also gave a CC50 (DU145 cells, prostate, 7 DAY) of 2.7 nM, a CC50 (DU4475 cells, breast, 3 DAY) of 0.1 nM and a CC50 (DU4475 cells, breast, 7 DAY) of 0.1 nM. The CC50 (HCC827 cells, NSCLC, 3 DAY) was 8 nM, the CC50 (HCC827 cells, NSCLC, 7 DAY) was 1.5 nM and the CC50 (HCT116 cells, colon, 3 DAY) was 0.6 nM. The CC50 (HCT116 cells, colon, 7 DAY) was 0.4 nM, the CC50 (HCT-15 cells, colon, 3 DAY) was 0.7 nM and the CC50 (HCT-15 cells, colon, 7 DAY) was 1 nM. For the same compound, the CC50 (HOP92 cells, NSCLC, 3 DAY) was 17 nM, the CC50 (HOP92 cells, NSCLC, 7 DAY) was 4.3 nM and the CC50 (HT29 cells, colon, 3 DAY) was 1.4 nM. For the same compound, the CC50 (HT29 cells, colon, 7 DAY) was 1.1 nM, the CC50 (HT1080 cells, sarcoma, 3 DAY) was 1 nM and the CC50 (HT1080 cells, sarcoma, 7 DAY) was 0.6 nM. It also gave a CC50 (KM12 cells, colon, 3 DAY) of 0.9 nM, a CC50 (KM12 cells, colon, 7 DAY) of 0.4 nM and a CC50 (MDA-MB-231 cells, breast, 3 DAY) of 10 nM. For the same compound, the CC50 (MDA-MB-231 cells, breast, 7 DAY) was 7.5 nM, the CC50 (MIA PaCa-2 cells, pancreatic, 3 DAY) was 1.8 nM and the CC50 (MIA PaCa-2 cells, pancreatic, 7 DAY) was 0.4 nM. The CC50 (NCI-H69 cells, SCLC, 3 DAY) was 1 nM, the CC50 (NCI-H82 cells, SCLC, 3 DAY) was 1.1 nM and the CC50 (NCI-H460 cells, NSCLC, 3 DAY) was 15.4 nM. It also gave a CC50 (NCI-H522 cells, NSCLC, 3 DAY) of 1 nM, a CC50 (NCI-H522 cells, NSCLC, 7 DAY) of 0.4 nM and a CC50 (NCI-H929 cells, myeloma, 3 DAY) of 2.5 nM. The CC50 (NCI-H1650 cells, NSCLC, 3 DAY) was 2.5 nM, the CC50 (NCI-N87 cells, gastric, 3 DAY) was 0.3 nM and the CC50 (NCI-N87 cells, gastric, 7 DAY) was 0.2 nM. For the same compound, the CC50 (OCI-Ly19 cells, lymphoma, 3 DAY) was 1.2 nM, the CC50 (OPM-2 cells, myeloma, 3 DAY) was 1.5 nM and the CC50 (OVCAR3 cells, ovarian, 3 DAY) was 1.1 nM. For the same compound, the CC50 (OVCAR3 cells, ovarian, 7 DAY) was 0.4 nM, the CC50 (SF-295 cells, glioma, 3 DAY) was 1.5 nM and the CC50 (SU-DHL-4 cells, lymphoma, 3 DAY) was 1.5 nM. The CC50 (SU-DHL-5 cells, lymphoma, 3 DAY) was 0.9 nM and the CC50 (U-87MG cells, glioma, 3 DAY) was 23 nM.
